Legend:
Caco-2 and HT-29 cells = assay: Cytotoxicity, XTT viability assay, stated for both cell lines; assay type: cell-based, human; conditions: 125 µM, 48 h
Method: The suspension was added to a 96-well plate. […] Cell viability was determined using the following steps.

[1] = system: G. lamblia strain resistant to nitazoxanide; assay: Giardicidal activity in nitazoxanide-resistant strain (trypan blue count); assay type: cell-based; conditions: Giardia duodenalis, 48 h, read-out: IC50 G. lamblia (NTZ Resistant)
Method: A pre-culture at confluence was used as a starting point, and a concentration–response curve was plotted using an initial compound concentration of 25 μM in a final volume of 1.5 mL of TYI-S-33 medium, followed by serial dilutions of the compound. Each treatment was inoculated with 1.5 × 10^5 trophozoites and incubated for 48 h at 37 °C. At the end of the incubation, the number of trophozoites was determined using the trypan blue assay and by counting in a Neubauer chamber. The viability percentage at each compound concentration was calculated using the negative control as a reference.

[2] = system: G6PD::6PGL enzyme of G. lamblia; conditions: cited from earlier work
[3] = system: G. lamblia strain ATCC 30957; assay: Viability of Giardia lamblia trophozoite culture (trypan blue count); assay type: cell-based
Method: Viability analysis was performed on G. lamblia strain ATCC 30957 grown in TYI-S-33 medium supplemented with 10% fetal bovine serum (FBS) and an antibiotic. Pre-culture was performed in 16 × 150 mm borosilicate tubes with a medium inoculated with 2 × 10^5 trophozoites and incubated at 37 °C for 48 h. For the recovery of the trophozoites, the vial was incubated in ice for 8 min and centrifuged for 6 min at 2000 rpm. The concentrated trophozoites were suspended in 1 mL of phosphate-buffered saline (PBS), and the number of trophozoites was counted by placing a 1:1 volume ratio of cell culture and trypan blue dye (4 g/L); then, a homogeneous drop of the mixture was taken and placed in the Neubauer chamber, and the total cells were counted.
The curves were plotted for concentrations of 0–50 µM of each compound. The assay was performed by placing 1.5 × 10^5 cells in 1.5 mL microcentrifuge tubes with a supplemented medium and different concentrations of each compound (0–50 µM). The negative control was performed under the same conditions without a compound, and the drugs NTZ and MTZ were used as positive controls. The samples were incubated for 48 h at 37 °C. At the end of the incubation, the cell viability count was performed using the trypan blue technique. The viability calculation was performed following the formula nv/(nv + nm), where nv represents the live cells and nm represents the dead cells; the viability value obtained was expressed as a percentage. The IC50 value of each compound was determined using the IC50 Calculator software (https://www.aatbio.com/tools/ic50-calculator).

[4] = system: Giardia lamblia trophozoites (strain ATCC 30957) gene expression; assay: Gene expression in trophozoites by RT-qPCR; assay type: cell-based; conditions: IC50 of each compound, 48 h
Method: To determine the alterations in the parasite’s metabolism and cellular processes induced by the compounds, the expression levels of various genes encoding metabolic, structural, and oxidative stress response proteins were evaluated. G. lamblia strain ATCC 30957 was grown by following previously established culture parameters.
The culture tube was incubated on ice for 15 min and then centrifuged at 2000 rpm for 6 min to concentrate the cell pellet. Cell counting was performed using the trypan blue method. A 500 µL volume of Trizol ® was added, and it was gently homogenized; then, 60 µL of chloroform was added, and it was homogenized for 10 s with a vortex and incubated on ice for 3 min. Afterward, it was centrifuged at 12,000 rpm for 10 min, the aqueous phase was transferred to a new tube, 200 µL of isopropanol was added, and it was incubated for 3 h on ice. The sample was then centrifuged for 10 min at 12,000 rpm, and the supernatant was discarded. A 600 µL volume of ethanol (70%) was added, homogenized, and centrifuged. In the end, the supernatant was removed, and the sample was centrifuged again to dry the excess alcohol. The pellet was dried. Finally, it was resuspended in 25 µL of sterile MilliQ water. The concentration and purity of the extracted RNA were determined using the NanoDrop® Spectrophotometer ND-1000 (NanoDrop Technologies, Wilmington, DE, USA). […] RNA purity and integrity were confirmed using 0.8% (w/v) agarose gels under denaturing conditions.
The synthesis of cDNA was carried out with […] of purified RNA, and 1 U of […] was added (Thermo Thermo Fisher Scientific, Waltham, MA, USA). First-strand cDNA synthesis was carried out using 1 μg of DNase-treated RNA, combined with a 10 mM dNTP mix, oligo(dT)18 primer, and RevertAid reverse transcriptase (Thermo Scientific) in a final reaction volume of 20 μL. The reaction mixture was incubated at 42 °C for 60 min, followed by heat inactivation at 70 °C for 10 min. The synthesized cDNA was stored at −20 °C until further use. The level of purity and concentration of the cDNA were determined using the NanoDrop® Spectrophotometer ND-1000 (NanoDrop Technologies, Wilmington, DE, USA).
Specific oligonucleotides were designed to determine the expression levels of the gene’s phosphofructokinase, pyruvate kinase, glucose-6-phosphate dehydrogenase::6-phosphogluconolactonase, 6-phosphogluconate dehydrogenase, and transketolase. The design was based on gene sequences available in the National Center for Biotechnology Information (NCBI) database, adhering to the following criteria: an oligonucleotide length of 18–20 bp, a melting temperature (Tm) of 61 °C, a GC content of approximately 40%, and an amplicon size between 80 and 200 bp (Table 4). The oligonucleotides were synthesized by the Sequencing and Synthesis Unit of the Institute of Biotechnology, UNAM.
Additionally, previously reported primers that were used for the gene expression analysis of G. lamblia were also obtained (Table 4). These primers target genes encoding surface structural protein, giardin, actin, pyruvate:ferredoxin oxidoreductase, pyruvate phosphate dikinase, NADH oxidase, triose phosphate isomerase, glyceraldehyde-3-phosphate dehydrogenase, and Aldolase.
Amplification was performed using a StepOne™ Real-Time PCR System and the Fast SYBR® Green Master Mix kit (Applied Biosystems, Foster City, CA, USA) under the following conditions: an initial denaturation at 95 °C for 30 s, followed by 40 cycles of 95 °C for 3 s and 60 °C for 30 s. The melt curve analysis was conducted post-amplification by gradually increasing the temperature from 60 °C to 95 °C. […] Normalization was performed using the geometric mean of cycle threshold (Ct) values, and the relative expression levels of the target genes were calculated using the 2^−ΔΔCt method. Each reaction was performed in five replicates for all analyzed genes and strains. Results are presented as mean values ± standard deviation (SD).

Compound: CCCCC(=O)Nc1ncc([N+](=O)[O-])s1 [FLP-2, N-(5-Nitro-1,3-thiazol-2-yl)pentanamide]
- Decrease of cell viability (Caco-2 and HT-29 cells): up to 20%
- IC50 [1]: 370 nM
- Inhibition of the G6PD::6PGL enzyme (in words) [2]: inhibitors of the G6PD enzyme
- Inhibition of growth of G. lamblia parasite culture ([3]; concentration not given): more than 98%
- Relative potency compared with NTZ ([3]; ratio of IC50 values, ATCC strain): 1.2 times
- 6PGDH gene expression vs control [4]: differential overexpression
- ACT (actin) gene expression, decrease vs control [4]: 10 times
- G6PD::6PGL gene expression vs control [4]: 117.4 fold change
- GAPDH gene expression vs control [4]: 18.3 fold change
- GIA (giardin) gene expression, increase vs control [4]: 20.1 times
- NADHox gene expression, increase vs control [4]: lower
- PFK gene expression vs control [4]: reduction
- PFOR gene expression vs control [4]: 16 fold change
- PPDK gene expression vs control [4]: 21.8 fold change
- TKT gene expression, increase vs control [4]: 45.1 times
- VSP gene expression, increase vs control [4]: 47.8 times

From article PMC12111156, “Nitazoxanide Analogs: Synthesis, In Vitro Giardicidal Activity, and Effects on Giardia lamblia Metabolic Gene Expression” (International Journal of Molecular Sciences, 2025)
